# Test results: patent US12599601B2, “Antifungal composition containing carbazole compound as active ingredient” (KOREA UNIVERSITY RESEARCH AND BUSINESS FOUNDATION, priority 2019, dated 2026)
# Values joined by “and” are separate entries in the source; they are usually repeats but may differ in a detail not shown here. Identical values can stand only once. Like-named read-outs stand apart in the source and are kept apart here.
# Experiments:
# Candida albicans = test: Inhibition of Candida growth, CLSI M27-A2 broth microdilution (absorbance, MIC); format: cell-based; settings: for MIC: Candida, Table 2; for absorbance of the Candida strain: 37° C., 24 hours, replicate wells
# Procedure: An inhibitory effect on Candida growth was evaluated using the CLSI M27 method, which is known as a standard method for antifungal susceptibility testing. The evaluation was performed using the broth microdilution method according to the guidelines of CLSI M27-A2. As medium, 10.4 g of RPMI-MOPS, which is RPMI-1640 medium (Gibco, Gaithersburg, MD, USA) supplemented with L-glutamine, was dissolved in 900 mL of distilled water, and then 34.53 g of 0.165 M 3-N-morpholinopropanesulfonic acid MOPS) buffer was dissolved therein to reach a final volume of 1,000 mL, followed by pH adjustment to 7.0. Then, the solution was filtered through a 0.2 μm filter, thus preparing a medium.
# The carbazole compound was dissolved in triple distilled water or dimethyl sulfoxide (DMSO) (Sigma) to a concentration of 20 mg/mL.
# A Candida strain was incubated in yeast extract peptone dextrose (YPED) for 16 hours at 30° C., and adjusted to 1.0 turbidity (measured by a spectrophotometer at 600 nm) so that the fungal concentration was about 2.0×10^7 CFU/mL. The fungal solution was washed with triple distilled water, and then diluted again with RPMI-MOPS medium, and 100 μL of the fungal solution was dispensed into each of well Nos. 1 to 10 of a 96-well microplate (final cell concentration: 2.0×10^4 CFU/mL). In addition, 100 μL of the fungal solution was dispensed into well No. 11 (a growth control well), and only 100 μL of RPMI-MOPS medium was dispensed into well No. 12 (a medium control well). After completion of fungal inoculation, the microplate was incubated at 37° C. for 24 hours.
# For evaluation of the results, data were obtained by measuring the absorbance using a microplate spectrophotometer to prevent errors by the inspector.
# In the data, the concentration at which growth was inhibited based on the medium control well was determined as MIC (minimum inhibitory concentration), and the results are shown in Table 2 below and FIG. 1.
# HeLa cells = settings: 16 hours treatment, MTS, tested 1 to 64 μg/ml
# Procedure: The cytotoxicity of the carbazole compound to mammalian cells was evaluated using the human cervical cancer cell line HeLa.
# Cells were seeded into a 96-well microplate at a density of 1.0×10^4 cells per well, and cultured in 10% FBS-containing DMEM for 24 hours at 37° C. Then, the medium was removed, each well was washed once with PBS and then treated with the synthesized compound diluted in DMEM serially from a concentration of 64 μg/ml to a concentration of 1 μg/ml. 16 hours after treatment with the compound, cytotoxicity was measured using MTS.
# Candida SC5314 [1] = test: Survival of candidiasis mouse models, compounds in drinking water; format: in vivo; settings: Balb/C mice infected by tail vein; drinking water with molecule B 16 μg/ml or molecule C 32 μg/ml daily; monitored 2 weeks; control 0% within 9 days
# Description: (§1) For Candida infection, SC5314, a wild-type strain, was used, and 6-week-old Balb/C female mice were used. The mice were divided into two groups, each consisting of 5 mice, and the survival rate thereof was monitored.
# The control group of the experiment using drinking water was provided with normal drinking water daily after Candida infection performed by tail vein injection as described in Example 3-1, and the experimental groups were provided daily with drinking water treated with molecule B at a concentration of 16 μg/ml or with drinking water treated with molecule C at a concentration of 32 μg/ml. The survival rates of the mice were monitored daily for 2 weeks.
# A. fumigatus = test: MIC test against A. fumigatus, same manner as Example 1-1; format: cell-based
# S. cerevisiae = test: MIC test against budding yeast, same manner as Example 1-1; format: cell-based
# Candida SC5314 [2] = test: Extent of kidney infection in Candida-infected mice; format: in vivo; settings: Candida infection by tail vein injection; treated as in Example 3-1
# Procedure: as §1
# 5.0×10^5 Candida cells were diluted in 200 μl of PBS and mice were infected with the dilution by tail vein injection. From day 1 after infection, the control group was inoculated with 200 μl of PBS by tail vein injection, the experimental groups were weighed and treated with molecule B (diluted in 100 μl of PBS) in an amount of 8 mg/kg by tail vein injection or treated with molecule C (diluted in 100 μl of PBS) in an amount of 16 mg/kg by tail vein injection.
# After Candida infection performed by tail vein injection as described in Example 3-1, the mice showing the following conditions based on humane euthanasia standards were euthanized using CO2, and the kidneys were collected therefrom and the extents of infection thereof were compared: inability to eat food or drink water; abnormal breathing; dull and stiff hair; reduced movement; or bent posture or body tremor.
# [3] = Candida albicans, read-out: MIC
compound,measurement,setting,value
C(=C\c1ccccc1)/CN1CCN(CCCCCn2c3ccccc3c3ccccc32)CC1 [Molecule A],MIC,Candida albicans; [3],32 mg/L
Nc1ccc(CCCN2CCN(CCCCn3c4ccccc4c4cc(Br)ccc43)CC2)cc1 [Molecule B],concentration up to which no toxicity to mammalian cells was shown,HeLa cells,≤ 16 µg/mL
same,survival rate,Candida SC5314 [1],100%
same,MIC against A. fumigatus,A. fumigatus,64 mg/L
same,MIC against Candida,Candida albicans,8 mg/L
same,absorbance of the Candida strain,Candida albicans; 0.125 μg/ml compound,0.209 and 0.229 and 0.206
same,absorbance of the Candida strain,Candida albicans; 0.25 μg/ml compound,0.199 and 0.201 and 0.212
same,absorbance of the Candida strain,Candida albicans; 0.5 μg/ml compound,0.198 and 0.199 and 0.218
same,absorbance of the Candida strain,Candida albicans; 1 μg/ml compound,0.224 and 0.228 and 0.208
same,absorbance of the Candida strain,Candida albicans; 2 μg/ml compound,0.143 (2×) and 0.152
same,absorbance of the Candida strain,Candida albicans; 4 μg/ml compound,0.137 and 0.132 and 0.135
same,absorbance of the Candida strain,Candida albicans; 8 μg/ml compound,0.041 (2×) and 0.034
same,absorbance of the Candida strain,Candida albicans; 16 μg/ml compound,0.042 (2×) and 0.036
same,absorbance of the Candida strain,Candida albicans; 32 μg/ml compound,0.047 and 0.045 and 0.04
same,absorbance of the Candida strain,Candida albicans; 64 μg/ml compound,0.043 and 0.044 and 0.036
same,MIC,Candida albicans,8 mg/L
same,MIC against budding yeast S. cerevisiae,S. cerevisiae,4 mg/L
same,extent of kidney infection compared to control mice,Candida SC5314 [2],very low extent of kidney infection
Nc1ccc(CCCN2CCN(CCCCn3c4ccccc4c4ccccc43)CC2)cc1 [Molecule C],concentration up to which no toxicity to mammalian cells was shown,HeLa cells,≤ 32 µg/mL
same,survival rate,Candida SC5314 [1],80%
same,MIC against A. fumigatus,A. fumigatus,64 mg/L
same,MIC against Candida,Candida albicans,16 mg/L
same,absorbance of the Candida strain,Candida albicans; 0.125 μg/ml compound,0.168 and 0.156 and 0.17
same,absorbance of the Candida strain,Candida albicans; 0.25 μg/ml compound,0.189 and 0.193 and 0.162
same,absorbance of the Candida strain,Candida albicans; 0.5 μg/ml compound,0.182 and 0.25 and 0.199
same,absorbance of the Candida strain,Candida albicans; 1 μg/ml compound,0.196 and 0.193 and 0.194
same,absorbance of the Candida strain,Candida albicans; 2 μg/ml compound,0.19 and 0.198 and 0.188
same,absorbance of the Candida strain,Candida albicans; 4 μg/ml compound,0.194 and 0.24 and 0.195
same,absorbance of the Candida strain,Candida albicans; 8 μg/ml compound,0.122 and 0.136 and 0.124
same,absorbance of the Candida strain,Candida albicans; 16 μg/ml compound,0.044 and 0.04 and 0.038
same,absorbance of the Candida strain,Candida albicans; 32 μg/ml compound,0.043 and 0.039 (2×)
same,absorbance of the Candida strain,Candida albicans; 64 μg/ml compound,0.044 and 0.04 and 0.039
same,MIC,Candida albicans,16 mg/L
same,MIC against budding yeast S. cerevisiae,S. cerevisiae,4 mg/L
same,extent of kidney infection compared to control mice,Candida SC5314 [2],very low extent of kidney infection
CN(C/C=C/c1ccccc1)CCCCn1c2ccccc2c2ccccc21 [Molecule D],MIC,Candida albicans; [3],16 mg/L
Nc1cccc(CCCN2CCN(CCCCn3c4ccccc4c4ccccc43)CC2)c1 [Molecule E],MIC,Candida albicans; [3],32 mg/L
Nc1ccc(CCCN2CCN(CCCCN(c3ccccc3)c3ccccc3)CC2)cc1 [Molecule F],MIC,Candida albicans; [3],32 mg/L
Nc1ccc(CCCN2CCN(CCCCn3c4ccccc4c4cc([N+](=O)[O-])ccc43)CC2)cc1 [Molecule G],MIC,Candida albicans,16 mg/L
Nc1ccc(CCCCN2CCN(CCCCn3c4ccccc4c4ccccc43)CC2)cc1 [Molecule H],MIC,Candida albicans; [3],32 mg/L
Nc1ccc(CCCC2CCN(CCCCn3c4ccccc4c4ccccc43)CC2)cc1 [Molecule I],MIC,Candida albicans; [3],32 mg/L
Nc1ccc(CCCN2CCN(CCCCn3c4ccccc4c4cccc(Br)c43)CC2)cc1 [Molecule J],MIC,Candida albicans,32 mg/L
